For 19 compounds, inhibition results are on record in US10358436B2, “Kinase inhibitors and method of treating cancer” (University Health Network, priority 2010, dated 2019).

Where a name gives a salt, the structure may show the parent alone.

In this test the target is Aurora A (Homo sapiens (Human), UniProt O14965). The experiment in a line: Aurora A inhibition assay (Z-Lyte). It is filed as biochemical.
Chain of Aurora A (O14965 whole entry): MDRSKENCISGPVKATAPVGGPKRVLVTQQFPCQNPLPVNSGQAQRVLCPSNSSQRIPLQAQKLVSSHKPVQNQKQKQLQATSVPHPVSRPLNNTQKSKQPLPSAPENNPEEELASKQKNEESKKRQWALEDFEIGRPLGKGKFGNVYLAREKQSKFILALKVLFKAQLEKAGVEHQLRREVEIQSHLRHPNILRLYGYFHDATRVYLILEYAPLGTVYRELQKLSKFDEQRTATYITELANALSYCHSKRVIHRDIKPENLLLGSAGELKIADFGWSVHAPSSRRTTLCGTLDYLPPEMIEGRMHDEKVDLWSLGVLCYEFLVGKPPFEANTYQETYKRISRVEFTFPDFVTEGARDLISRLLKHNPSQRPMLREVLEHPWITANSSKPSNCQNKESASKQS

As to `COc1ccc2c(c1)[C@]1(C[C@H]1c1ccc3c(-c4ccc(CN5CCOCC5)cc4)n[nH]c3c1)C(=O)N2` (relative stereo) [Example A139, (1R*,2S*)-5′-methoxy-2-(3-(4-(morpholinomethyl)phenyl)-1H-indazol-6-yl)spiro[cyclopropane-1,3′-indolin]-2′-one 2,2,2-trifluoroacetate], the inhibition at 1 µM is less than 50%.

For `O=C1Nc2ccc(F)cc2[C@]12C[C@H]2c1ccc2c(/C=C/c3ccc(N4CCOCC4)nc3)n[nH]c2c1` (relative stereo) [Example A207, (1R*,2S*)-5′-fluoro-2-(3-((E)-2-(6-morpholinopyridin-3-yl)vinyl)-1H-indazol-6-yl)spiro[cyclopropane-1,3′-indolin]-2′-one 2,2,2-trifluoroacetate], the inhibition at 1 µM was greater than 50%.

Compound `CN1C(=O)[C@@]2(C[C@H]2c2ccc3c(/C=C/c4ccc(CN5CCCC5)cc4)n[nH]c3c2)c2ccccc21` [Example A115, (1R,2S)-(E)-1′-methyl-2-(3-(4-(pyrrolidin-1-ylmethyl)styryl)-1H-indazol-6-yl)spiro[cyclopropane-1,3′-indolin]-2′-one 2,2,2-trifluoroacetate] had an inhibition at 1 µM of less than 50%.

For `CN1C(=O)[C@@]2(C[C@H]2c2ccc3c(/C=C/c4ccc(N5CCNCC5)cc4)n[nH]c3c2)c2ccccc21` [Example A90, (1R,2S)-(E)-1′-methyl-2-(3-(4-(piperazin-1-yl)styryl)-1H-indazol-6-yl)spiro[cyclopropane-1,3′-indolin]-2′-one hydrochloride], the inhibition at 1 µM was greater than 50%.

For the compound `O=C1Nc2ccc(F)cc2[C@]12C[C@H]2c1ccc2c(/C=C/c3ccc(CN4CCOCC4)cc3)n[nH]c2c1` [Example A220], the inhibition at 1 µM was greater than 50%.

The compound `Cc1ccc2c(c1)[C@]1(C[C@H]1c1ccc3c(/C=C/c4ccc(CN(C)C)cc4)n[nH]c3c1)C(=O)N2` (relative stereo) [Example A169, (1R*,2S*)-(E)-2-(3-(4-((dimethylamino)methyl)styryl)-1H-indazol-6-yl)-5′-methylspiro[cyclopropane-1,3′-indolin]-2′-one 2,2,2-trifluoroacetate] displayed an inhibition at 1 µM greater than 50%.

Consider `O=C1Nc2ccccc2[C@]12C[C@H]2c1ccc2c(/C=C/c3ccc(CN4CCCC4)cc3)n[nH]c2c1` (relative stereo) [Example A60, (1R*,2S*)-(E)-2-(3-(4-(pyrrolidin-1-ylmethyl)styryl)-1H-indazol-6-yl)spiro[cyclopropane-1,3′-indolin]-2′-one 2,2,2-trifluoroacetate], for which the inhibition at 1 µM was greater than 50%.

Compound `O=C1Nc2ncc(Br)cc2[C@]12C[C@H]2c1ccc2c(/C=C/c3cccnc3)n[nH]c2c1` (relative stereo) [Example A27, (1R*,2S*)-5′-bromo-2-(3-((E)-2-(pyridin-3-yl)vinyl)-1H-indazol-6-yl)spiro[cyclopropane-1,3′-pyrrolo[2,3-b]pyridin]-2′(1′H)-one] returned an inhibition at 1 µM of less than 50%.

`COc1ccc2c(c1)[C@@]1(C[C@@H]1c1ccc3c(-c4ccc(N5CCNCC5)cc4)n[nH]c3c1)C(=O)N2` [Example A50, (1S,2R)-5′-methoxy-2-(3-(4-(piperazin-1-yl)phenyl)-1H-indazol-6-yl)spiro[cyclopropane-1,3′-indolin]-2′-one 2,2,2-trifluoroacetate] showed an inhibition at 1 µM of less than 50%.

Compound `COc1ccc2c(c1)[C@]1(C[C@H]1c1ccc3c(-c4ccc(C5CCN(C)CC5)cc4)n[nH]c3c1)C(=O)N2` [Example A123, (1R,2S)-5′-methoxy-2-(3-(4-(1-methylpiperidin-4-yl)phenyl)-1H-indazol-6-yl)spiro[cyclopropane-1,3′-indolin]-2′-one hydrochloride] yielded an inhibition at 1 µM of less than 50%.

Consider `Cc1ccc2c(c1)[C@]1(C[C@H]1c1ccc3c(/C=C/c4ccc(CN5CCOCC5)cc4)n[nH]c3c1)C(=O)N2` [Example A195, (1R,2S)-(E)-5′-methyl-2-(3-(4-(morpholinomethyl)styryl)-1H-indazol-6-yl)spiro[cyclopropane-1,3′-indolin]-2′-one 2,2,2-trifluoroacetate], for which the inhibition at 1 µM is greater than 50%.

For the compound `CN1CCN(c2ccc(-c3n[nH]c4cc([C@@H]5C[C@@]56C(=O)Nc5ccc(Br)cc56)ccc34)cn2)CC1` (relative stereo) [Example A19, (1R*,2S*)-5′-bromo-2-(3-(6-(4-methylpiperazin-1-yl)pyridin-3-yl)-1H-indazol-6-yl)spiro[cyclopropane-1,3′-indolin]-2′-one], the inhibition at 1 µM was less than 50%.

Compound `COc1ccc2c(c1)[C@]1(C[C@H]1c1ccc3c(-c4ccc(N5CCOCC5)nc4)n[nH]c3c1)C(=O)N2` (relative stereo) [Example A20, (1R*,2S*)*-5′-Methoxy-2-(3-(6-morpholinopyridin-3-yl)-1H-indazol-6-yl)spiro[cyclopropane-1,3′-indolin]-2′-one] yielded an inhibition at 1 µM of less than 50%.

For the compound `O=C1Nc2ccccc2[C@]12C[C@H]2c1ccc2c(/C=C/c3ccc(CN4CCCCC4)nc3)n[nH]c2c1` (relative stereo) [Example A63, (1R*,2S*)-(E)-2-(3-((E)-2-(6-(piperidin-1-ylmethyl)pyridin-3-yl)vinyl)-1H-indazol-6-yl)spiro[cyclopropane-1,3′-indolin]-2′-one 2,2,2-trifluoroacetate salt], the inhibition at 1 µM was greater than 50%.

In the case of `COc1ccc2c(c1)[C@]1(C[C@H]1c1ccc3c(/C=C/c4csc(CN5CCOCC5)c4)n[nH]c3c1)C(=O)N2` [Example A183, (1R,2S)-5′-methoxy-2-(3-((E)-2-(5-(morpholinomethyl)thiophen-3-yl)vinyl)-1H-indazol-6-yl)spiro[cyclopropane-1,3′-indolin]-2′-one 2,2,2-trifluoroacetate], the inhibition at 1 µM was greater than 50%.

On to `CN1CCN(c2ccc(-c3n[nH]c4cc([C@@H]5C[C@@]56C(=O)Nc5ccc(F)cc56)ccc34)cn2)CC1` (relative stereo) [Example A210, 1R*,2S*1-5′-fluoro-2-(3-(6-(4-methylpiperazine-1-yl)pyridine-3-yl)-1H-indazol-6-yl)-spiro[cyclopropane-1,3′-indolin]-2′-one], for which the inhibition at 1 µM was greater than 50%.

In turn, `COc1ccc2c(c1)[C@]1(C[C@H]1c1ccc3c(-c4ccc(N5CCC(N(C)C)CC5)cc4)n[nH]c3c1)C(=O)N2` [Example A120, (1R,2S)-2-(3-(4-(4-(dimethylamino)piperidin-1-yl)phenyl)-1H-indazol-6-yl)-5′-methoxyspiro[cyclopropane-1,3′-indolin]-2′-one 2,2,2-trifluoroacetate] gave an inhibition at 1 µM of less than 50%.

Turning to `O=C1Nc2ccccc2[C@]12C[C@H]2c1ccc2c(/C=C/c3cccnc3)n[nH]c2c1` (relative stereo) [Example A28, (1R*,2S*)-2-(3-((E)-2-(pyridin-3-yl)vinyl)-1H-indazol-6-yl)spiro-[cyclopropane-1,3′-indolin]-2′-one], the inhibition at 1 µM was greater than 50%.

`Cc1ccc2c(c1)[C@]1(C[C@H]1c1ccc3c(/C=C/c4ccc(CN5CCOCC5)cc4)n[nH]c3c1)C(=O)N2` (relative stereo) [Example A196, (1R*,2S*)-(E)-5′-methyl-2-(3-(4-(morpholinomethyl)styryl)-1H-indazol-6-yl)spiro[cyclopropane-1,3′-indolin]-2′-one 2,2,2-trifluoroacetate] yielded an inhibition at 1 µM greater than 50%.

The term inhibition denotes the relative decrease from the control value, in per cent. A higher inhibition goes with a strong effect.
